Paper PMC12612973, “Inhibition of Human Amylin Aggregation: In Silico and In Vitro Studies” (ACS Omega, 2025)

Legend:
human amylin (hIAPP) [1] = biological target: T1, human amylin (hIAPP) (Homo sapiens, UniProt P10997); experiment: Dynamic light scattering (DLS) assay of amylin aggregation; assay type: biochemical; conditions: compound 10 μM, amylin 15 μM, 36 h incubation, 3 trials; read-out: DLS inhibition % (mean ± SEM)
T1 construct: purchased Bachem USA
T1 sequence (P10997 34-70 limits assumed): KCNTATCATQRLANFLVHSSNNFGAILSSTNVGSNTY
Experimental: (§1) A stock solution of amylin (1 mM) (purchased from Bachem USA), peptide sequence: […] amide (with disulfide bond between Cys2 and Cys7), was prepared in 100% hexafluoroisopropyl alcohol (HFIP) (purchased from Sigma-Aldrich) and stored at −20 °C. , Aliquots of amylin peptide were filtered through a 0.22 μm filter from the stock solution and freeze-dried. For kinetic experiments, 15 μM of amylin was prepared in 50 mM Tris-HCl buffer (pH 7.4), as investigated in previous studies by Chaari et al., , Samples of amylin were prepared in the presence or absence of inhibitors. Each compound was dissolved in DMSO and further diluted with the buffer used to solubilize the amylin. The final mixture contained 15 μM amylin, 10 μM of the test compound, 2% DMSO or 15 μM amylin, and 2% DMSO without the compound (negative control). Also 15 μM amylin, 10 μM of oleuropein aglycone and 2% DMSO was used as a positive control. The prepared solutions were incubated under physiological conditions (pH 7.4 and 37 °C) for amylin aggregation. Samples were incubated for 36 h to test for amylin aggregation, and measurements were conducted at different time points.
DLS (Zetasizer, Malvern) was used at a wavelength of 633 nm to measure the average diffusion coefficient distribution of amylin particles and the aggregation percentage. Samples were diluted 10-fold, and 50 μL was placed into a 96-well plate. The total light scattering intensity at a 90° angle was collected using a 10 s averaging acquisition time. Particle translational diffusion coefficients were calculated from autocorrelated light intensity data (usually 30–40 points) and converted to the hydrodynamic radius (R h) using the Stokes–Einstein equation. A distribution plot of intensity versus R h was calculated using the Sedfit 9.3 analysis software, and intensity-weighted mean R h values were obtained from each peak.

human amylin (hIAPP) [2] = biological target: T1, human amylin (hIAPP); experiment: Thioflavin T (ThT) fluorescence assay of amylin aggregation; assay type: biochemical; conditions: for ThT inhibition % (mean ± SEM): compound 10 μM, amylin 15 μM, 36 h incubation, 3 trials; for inhibition at 10 µM: read-out: ThT inhibition % (mean ± SEM), compound 10 μM, amylin 15 μM, 36 h incubation, 3 trials
Experimental: as §1
Amylin aggregation was monitored by characteristic changes in Thioflavin T (ThT) fluorescence intensity. A ThT stock solution (15 μM) was prepared in deionized water at pH 7.4. The amylin samples were mixed with the ThT solution and allowed to incubate. ThT fluorescence was measured using the PerkinElmer model LS 55 fluorescence spectrophotometer (PerkinElmer, USA), with an excitation wavelength of 440 nm and an emission wavelength of 480 nm. ,− The emission and excitation slits were set to 5 nm, and a 1 cm cuvette was used for all experiments. Nonspecific background fluorescence was subtracted from the samples using appropriate blanks in the absence of proteins. Each experiment was performed in triplicate.

Aβ = tested on: Aβ; design: method as in Panek et al.; conditions: based on ThT assay results; ref Panek et al.; read-out: IC50 of Aβ aggregation inhibition; cited from earlier work

| SMILES | inhibition at 10 µM (human amylin (hIAPP) [1]) [%] | ThT inhibition % (mean ± SEM) (human amylin (hIAPP) [2]) [%] | inhibition at 10 µM (human amylin (hIAPP) [2]) [%] | IC50 (Aβ) [nM] |
| --- | --- | --- | --- | --- |
| CC(C)(C)c1cccc(CNCC(O)CNCCC(c2ccccc2)c2ccccc2)c1 (centres unmarked) [Compound 18] | 99.2 ± 6.5 | 91.5 ± 0.4 | > 88 | 3090 |
| CC(C)(C)c1cccc(CNCC(O)CCNCCC(c2ccccc2)c2ccccc2)c1 (centres unmarked) [Compound 22] | 99.2 ± 6.8 | 89.3 ± 0.3 | > 88 | 1220 |
